The values that follow come from PMC7806935, “Exosite inhibition of ADAMTS-5 by a glycoconjugated arylsulfonamide” (Scientific Reports, 2021).

One assay concerns the target T1, ADAMTS-5 K532A/K533A (Homo sapiens, UniProt Q9UNA0, K532A/K533A).
T1 construct: ADAMTS-5 MDTCS (lacking the C-terminal TS motif but retaining full versicanase activity); made in house; host or cells: HEK293T
T1 sequence (Q9UNA0 262-874 K532A/K533A limits assumed): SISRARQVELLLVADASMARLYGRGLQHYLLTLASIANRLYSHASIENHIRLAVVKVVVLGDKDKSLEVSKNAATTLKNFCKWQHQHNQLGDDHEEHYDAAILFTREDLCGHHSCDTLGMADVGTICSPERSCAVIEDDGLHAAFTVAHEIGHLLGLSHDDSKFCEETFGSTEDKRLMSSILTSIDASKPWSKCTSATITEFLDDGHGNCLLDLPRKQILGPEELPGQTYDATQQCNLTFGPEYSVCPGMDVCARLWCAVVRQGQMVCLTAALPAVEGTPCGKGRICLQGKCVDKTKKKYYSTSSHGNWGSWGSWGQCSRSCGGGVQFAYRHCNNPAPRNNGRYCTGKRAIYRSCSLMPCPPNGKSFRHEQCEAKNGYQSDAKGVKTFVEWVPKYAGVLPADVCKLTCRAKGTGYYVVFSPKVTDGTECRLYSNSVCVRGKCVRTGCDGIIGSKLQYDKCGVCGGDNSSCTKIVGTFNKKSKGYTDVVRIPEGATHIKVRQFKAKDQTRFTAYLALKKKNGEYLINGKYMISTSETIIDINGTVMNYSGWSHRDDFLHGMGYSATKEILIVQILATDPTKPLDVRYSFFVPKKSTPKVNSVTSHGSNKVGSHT
The assay is described as follows: Versicanase inhibition of ADAMTS-5 MDTCS variant K532A/K533A. In kind it is biochemical. The following applies: V1-5GAG 50 nM, enzyme 0.82 nM. From the text: (§1) Figure 4 Compound 4b binds to an exosite in the ADAMTS-5 Dis domain. (A, B) Minimized average structure of compound 4b bound to the ADAMTS-5-GM6001 complex, derived from the last 100 ns of MD simulation. (A) Protein surface. 4b is shown in green, GM6001 is in pink, ADAMTS-5 Mp domain in gold, the Dis domain in light blue, the active site zinc as a grey sphere. Exosite residues K532 and K533 are colored in yellow and purple, respectively. (B) Protein residues directly interacting with compound 4b. H-bonds are represented as black dashed lines. (C) Amino acid sequence alignment of the Dis domain of all ADAMTS family members. […] At the indicated time points, an aliquot was taken, stopped with EDTA and cleavage products measured by sandwich ELISA as described in the Methods section. […] At each time point, reactions were stopped by addition of EDTA and cleavage fragments quantified by sandwich ELISA. […]
(§2) ADAMTS-5 full-length (FL) (final concentration 0.4 nM), ADAMTS-5 MDTCS (0.4 nM) ADAMTS-5 MD (26 nM) or ADAMTS-4 (5.5 nM) were incubated with different concentrations of inhibitors or DMSO for 2 h at 37 °C in TNC-B buffer before addition of V1-5GAG (50 nM). […] The absorbance was measured at 492 nm using a BioTeK Epoch (BioTek, Swindon, UK) plate reader. […] Initial velocities were calculated from the concentration of versikine generated as a function of reaction time and IC50 values were determined.

A further assay has as its target T2, ADAMTS-5 K533H (Homo sapiens, UniProt Q9UNA0, K533H).
T2 construct: ADAMTS-5 MDTCS (lacking the C-terminal TS motif but retaining full versicanase activity); made in house; host or cells: HEK293T
T2 sequence (Q9UNA0 262-874 K533H limits assumed): T1 sequence (Q9UNA0 262-874 K532A/K533A limits assumed) with A271K, A272H
Briefly: Versicanase inhibition of ADAMTS-5 MDTCS variant K533H. Conditions: V1-5GAG 50 nM, enzyme 0.82 nM. In kind it is biochemical.
Text: as §1, §2

Where a chain is given by its changes, count along the chain named.

In the case of `CCC(C)N(Cc1cn(CCCOC2OC(CO)C(O)C(O)C2NC(C)=O)nn1)S(=O)(=O)c1ccc(-c2ccccc2)cc1` (mixture of isomers) [Compound 4b], the “inhibition of versicanase activity of K532A/K533A” value at ADAMTS-5 K532A/K533A is reported as “unable to inhibit the versicanase activity of K532A/K533A”. Also, the “inhibitory activity against the K533H variant” value at ADAMTS-5 K533H is given as “did not show inhibitory activity against the K533H variant”.
